According to ChEMBL document CHEMBL2073966, “Cloning and functional characterization of a new multispecific organic anion transporter, OAT-K2, in rat kidney” (Mol Pharmacol, 1999):

What was measured:
Type in all cases: functional, cell-based
[1] = biological target: T1, Solute carrier organic anion transporter family member 1A3 (Rattus norvegicus, UniProt P70502); test: TP_TRANSPORTER: inhibition of Taurocholate uptake in OAT-K2-expressing MDCK cells; details: dog
T1 sequence (P70502 whole entry): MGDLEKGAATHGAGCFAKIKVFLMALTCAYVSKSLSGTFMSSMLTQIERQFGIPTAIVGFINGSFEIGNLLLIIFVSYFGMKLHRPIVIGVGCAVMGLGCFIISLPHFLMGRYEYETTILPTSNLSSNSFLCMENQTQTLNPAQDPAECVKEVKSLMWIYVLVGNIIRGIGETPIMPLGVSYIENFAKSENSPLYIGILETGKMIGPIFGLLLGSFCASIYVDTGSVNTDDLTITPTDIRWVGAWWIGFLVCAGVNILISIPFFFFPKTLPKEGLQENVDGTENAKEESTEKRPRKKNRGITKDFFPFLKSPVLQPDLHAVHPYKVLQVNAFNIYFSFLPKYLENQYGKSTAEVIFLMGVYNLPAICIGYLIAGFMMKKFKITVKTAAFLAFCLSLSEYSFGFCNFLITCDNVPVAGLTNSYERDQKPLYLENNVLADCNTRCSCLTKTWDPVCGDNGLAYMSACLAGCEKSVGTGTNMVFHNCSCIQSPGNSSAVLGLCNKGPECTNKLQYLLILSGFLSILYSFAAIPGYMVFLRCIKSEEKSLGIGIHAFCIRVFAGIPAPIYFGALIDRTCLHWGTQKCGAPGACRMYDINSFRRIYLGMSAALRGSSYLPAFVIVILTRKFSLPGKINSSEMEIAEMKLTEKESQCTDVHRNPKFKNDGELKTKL

[2] = biological target: T1, Solute carrier organic anion transporter family member 1A3; test: TP_TRANSPORTER: uptake in Xenopus laevis oocytes; details: oocyte
[3] = biological target: T1, Solute carrier organic anion transporter family member 1A3; test: TP_TRANSPORTER: uptake in OAT-K2-expressing MDCK cells; details: dog

SMILES | Activity [1] | Activity [2] | Activity [3]
C[C@H](CCC(=O)NCC(=O)O)[C@H]1CC[C@H]2[C@@H]3[C@H](O)C[C@@H]4C[C@H](O)CC[C@]4(C)[C@H]3C[C@H](O)[C@]12C [GLYCOCHOLIC ACID] | inhibitor [+] | – | –
C[C@]12CC[C@H]3[C@@H](CCC4=CC(=O)CC[C@@]43C)[C@@H]1CC[C@@H]2O [TESTOSTERONE] | inhibitor [+] | – | –
COc1ccc2c(c1)c(CC(=O)O)c(C)n2C(=O)c1ccc(Cl)cc1 [INDOMETHACIN] | inhibitor [+] | – | –
Nc1nc2ncc(CNc3ccc(C(=O)N[C@@H](CCC(=O)O)C(=O)O)cc3)nc2c(=O)[nH]1 [FOLIC ACID] | – | substrate [+] | –
C[C@H](CCC(=O)NCCS(=O)(=O)O)[C@H]1CC[C@H]2[C@@H]3CC[C@@H]4C[C@H](O)CC[C@]4(C)[C@H]3C[C@H](O)[C@]12C [TAURODEOXYCHOLIC ACID] | inhibitor [+] | – | –
C[C@]12CC[C@@H]3c4ccc(O)cc4CC[C@H]3[C@@H]1CC[C@@H]2O [ESTRADIOL] | inhibitor [+] | – | –
CC(=O)S[C@@H]1CC2=CC(=O)CC[C@]2(C)[C@H]2CC[C@@]3(C)[C@@H](CC[C@@]34CCC(=O)O4)[C@H]12 [SPIRONOLACTONE] | inhibitor [+] | – | –
C[C@]12C=CC(=O)C=C1CC[C@@H]1[C@@H]2[C@@H](O)C[C@@]2(C)[C@H]1CC[C@]2(O)C(=O)CO [PREDNISOLONE] | inhibitor [+] | – | –
CCCN(CCC)S(=O)(=O)c1ccc(C(=O)O)cc1 [PROBENECID] | inhibitor [+] | – | –
CCCCC[C@H](O)/C=C/[C@H]1[C@H](O)CC(=O)[C@@H]1C/C=C\CCCC(=O)O [DINOPROSTONE] | – | substrate [+] | substrate [+]
C[C@H](CCC(=O)O)[C@H]1CC[C@H]2[C@@H]3[C@@H](O)C[C@@H]4C[C@H](O)CC[C@]4(C)[C@H]3CC[C@]12C [URSODIOL] | inhibitor [+] | – | –
C[C@@H]1C[C@H]2[C@@H]3CCC4=CC(=O)C=C[C@]4(C)[C@@]3(F)[C@@H](O)C[C@]2(C)[C@@]1(O)C(=O)CO [DEXAMETHASONE] | inhibitor [+] | – | –
CN(Cc1cnc2nc(N)nc(N)c2n1)c1ccc(C(=O)N[C@@H](CCC(=O)O)C(=O)O)cc1 [METHOTREXATE] | – | substrate [+] | –
C[C@H](CCC(=O)O)[C@H]1CC[C@H]2[C@@H]3CC[C@@H]4C[C@H](O)CC[C@]4(C)[C@H]3C[C@H](O)[C@]12C [DEOXYCHOLIC ACID] | inhibitor [+] | – | –
C[C@]12CC[C@@H]3c4ccc(O)cc4CC[C@H]3[C@@H]1C[C@@H](O)[C@@H]2O [ESTRIOL] | inhibitor [+] | – | –
C[C@H](CCC(=O)NCC(=O)O)[C@H]1CC[C@H]2[C@@H]3[C@H](O)C[C@@H]4C[C@H](O)CC[C@]4(C)[C@H]3CC[C@]12C [GLYCOCHENODEOXYCHOLATE] | inhibitor [+] | – | –
C[C@H](CCC(=O)NCCS(=O)(=O)O)[C@H]1CC[C@H]2[C@@H]3[C@H](O)C[C@@H]4C[C@H](O)CC[C@]4(C)[C@H]3CC[C@]12C [TAUROCHENODEOXYCHOLATE] | inhibitor [+] | – | –
O=C1OC(c2ccc(O)c(S(=O)(=O)[O-])c2)(c2ccc(O)c(S(=O)(=O)[O-])c2)c2c(Br)c(Br)c(Br)c(Br)c21.[Na+].[Na+] [SULFOBROMOPHTHALEIN SODIUM] | inhibitor [+] | – | –
